melting point	SMILES
155 to 162 °C	O=C1Cc2ccccc2N1CC(F)(F)F
217 to 219 °C	O=C(Nc1ccncc1)c1ccc(-c2ccc3nnn(Cc4ccc5ncccc5c4)c3n2)cc1F
215 to 217 °C	C[Si](C)(C)c1cccc2cc(C(=O)Nc3ccc(N4CC(O)C4)nc3)n(Cc3cccc(F)c3)c12
248 to 251 °C	Cc1oc(-c2ccc(Cl)cc2)cc1C(=O)Nc1cc(Cl)ccc1-c1noc(=O)[nH]1
181 °C	O=c1cc(-c2cnccn2)ss1
135 to 138 °C	CSC1=Nc2ccncc2S(=O)(=O)N1C
188 to 190 °C	NS(=O)(=O)c1ccc2c(c1)C=C(C(=O)O)C(C(F)(F)F)O2 (configuration not stated)
215 to 225 °C	NC(=O)Cn1cc(C(=O)c2ccn3c2CSC3c2cccnc2)c2ccc(-c3ccc(F)cc3)cc21 (configuration not stated)
63 to 65 °C	NNc1c(F)cc(F)c(F)c1F
61 to 63 °C	O=C1C(=Cc2ccccc2)N2CCC1C2 (configuration not stated)
206 °C	Nc1nc(=O)n(C2C=CC(CO)O2)cc1F (configuration not stated)
252 °C	O=C(O)c1c(Cc2ccccc2)nc2c(C(F)(F)F)cccc2c1O
121 to 122 °C	COc1ccc2sc(C(=O)OCC(C)(C)C(O)C(C)(C)C)cc2c1 (configuration not stated)
> 250 °C	COc1cc2c(c(-c3ccccc3F)c1)OC(CN)C2 (configuration not stated)
68 to 69 °C	FC(F)=C(F)CCSc1nnc(-c2ccc(Cl)cc2)s1
243 to 245 °C	O=C(Cc1ccc(Cl)cc1)NCc1cccc2c1C(=O)N(C1CCC(=O)NC1=O)C2=O (configuration not stated)
224 to 226 °C	COC(=O)n1cc2c(c1)-c1ccc(Cl)cc1C(c1ccccc1Cl)=[N+]([O-])C2
224 to 226 °C	COC1C2=C3C(=CN1OC)OCCC3CC(C(N)=O)C2 (configuration not stated)

melting point	SMILES
220 °C	Cc1cc(-c2cc(C(F)(F)F)n3ncc(-c4nc(-c5ccc(N)nc5)no4)c3n2)ccc1C(F)(F)F
172 to 174 °C	CCNC(=O)c1nc(-c2ccccc2)c(-c2ccc(=O)n(C(C)C)n2)s1
221 to 223 °C	CC(C)n1nc(-c2cc(C(=O)O)cnc2-c2ccccc2)ccc1=O
55 to 57 °C	C[Si](C)(C)CCOC1OC(COC(=O)c2ccccc2)C(O)C(O)C1N=[N+]=[N-] (configuration not stated)
114 to 119 °C	COc1cc(C=CCN2CCc3nc(N)sc3CC2)cc(OC)c1
> 300 °C	Oc1ccnc2cc(Cl)c(F)cc12
83 to 85 °C	CC1(C)Oc2cc3nonc3cc2C(NC(=O)NCCCCl)C1O (configuration not stated)
94 to 96 °C	CCOC(=O)c1ccc2c(c1)C(=C1CCN(C)CC1)c1ccccc1C=C2
62 to 64 °C	CCOC(=O)C(OCC)C(=O)Nc1ccc(Br)cc1 (configuration not stated)
104 to 106 °C	COc1ccc(C2=NN(C3CCN(C(=O)CCl)CC3)C(=O)[C@@H]3CC=CC[C@H]23)cc1OC
205 °C	CC(O)c1nc2c(C(F)(F)F)cccc2c(O)c1C(=O)Nc1nccs1 (configuration not stated)
306 to 307 °C	CC(C)(C)c1ccc(C(=O)Nc2cn3nc(-n4cnc(Br)c4)ccc3n2)cc1
190 °C	Nc1c([N+](=O)[O-])cnn1-c1c(Cl)cc(C(F)(F)F)cc1Cl
201 °C	Nc1cc2c(cc1Cl)C(=O)C1(CC1)O2
235 to 237 °C	CN1c2ccccc2NC(=O)c2cccnc21
150 to 151 °C	CC(C)(C)c1nc(C=Cc2cccnc2)ncc1O
220 °C	O=S(=O)(c1cccs1)c1ccc(O)c(Cl)c1Cl
80 to 82 °C	CCOP(=O)(O)Cc1ccc(NC(=O)CCc2cnoc2-c2ccccc2)cc1

The next lines start with the molecule.

SMILES	melting point
CN(C)CCC1(CO)c2ccccc2N(C)c2ccccc21	150 °C
O=C1CCCCN1S(=O)(=O)c1ccc(N2CCCCCCC2)cc1	150 to 152 °C
O=C(Nc1ccc([N+](=O)[O-])cc1)N(O)C1CCCCCCC1	143 to 144 °C
CC1(C)C(=O)N(c2ccc([N+](=O)[O-])c(C(F)(F)F)c2)C(=O)N1CCCCCCCN1C(=O)N(c2ccc([N+](=O)[O-])c(C(F)(F)F)c2)C(=O)C1(C)C	137 to 138 °C
COc1cc2c(cc1Nc1ncc(C(F)(F)F)c(Nc3ccc(N4CCOCC4)cc3OC)n1)N(C)C(=O)OCC2	221 to 223 °C
CCNC(=O)C(I)=C(Br)I	154 to 155 °C
S=c1nc2ccccn2c(=S)n1-c1ccccn1	107 to 109 °C
Cc1oc(-c2ccc(-c3ccccc3)cc2)nc1CCOc1ccc(OC(C)(C)C(=O)O)cc1	123 to 124 °C
CCOC(=O)C(C#N)(CCBr)c1cc(OC)c(OC)c(OC)c1 (configuration not stated)	76 to 77 °C
O=[N+]([O-])c1ccc(N2CCN(c3ccc(O)cc3)CC2)cc1	260 °C
N#Cc1c(-c2ccc(Cl)cc2)[nH]c(Br)c1Cl	262 to 263 °C
O=[N+]([O-])c1cccnc1Oc1ccc2c(c1)OCC(c1ccccc1)O2 (configuration not stated)	< 60 °C
O=C(O)C=C1SC(=Nc2cccc3ccccc23)N(c2cccc3ccccc23)C1=O	250 to 253 °C
CC1(C)CCC[C@H](NC(c2ccccc2)(c2ccccc2)c2ccccc2)C(=O)N1	139 to 140 °C
OC(CCl)(Cc1ccccc1Cl)c1ccc(Cl)cc1 (configuration not stated)	64 to 69 °C
Cc1cc(-c2nnc3c4ccccc4c(OCc4ncn(C)n4)nn23)on1	270 to 272 °C
CCCCOc1cc(Oc2ccc(C(F)(F)F)cn2)ccc1CCCOc1c(CC(=O)O)cccc1OC	64 to 65 °C
Cc1cccc(N2CCN(CCCc3ccc(C4CCC(=O)N4)cc3)CC2)c1 (configuration not stated)	87 to 89 °C

SMILES	melting point
Cc1ccc(F)c2c1N(C(c1ccccc1)c1ccccc1)C(=O)C21COc2cc3c(cc21)CCO3 (configuration not stated)	81 to 82 °C
CN1CCc2c(cccc2NC(=O)c2ccccc2F)C1	112 °C
Cc1[nH]c(C(=O)NCC(=O)O)c(C)c1-c1nc2ccc(C(=O)c3ccccc3)cc2[nH]1	274 to 276 °C
CC1(C)CCc2cc(S(=O)(=O)C[N+](=O)[O-])ccc2O1	85 to 86.5 °C
COc1ccc2ccc(S(=O)(=O)N[C@@H](CCCNC(=N)N)C(=O)N3CCC(c4ccccc4)CC3C(=O)O)cc2c1 (some centres not stated)	183 to 186 °C
COc1ccc(-c2c(CO)c(CO)c3n2Cc2ccccc2C3)cc1	174 to 176 °C
N#Cc1c(N)[nH]c(Br)c1C#N	> 210 °C
COC1=C(OC)C(=O)C(CCCCCCCCCC=O)=C(C)C1=O	44.5 to 46.5 °C
NS(=O)(=O)c1c(Cl)sc(Cl)c1Br	113 to 117 °C
Cc1ccc(CC(C(=O)c2ccccc2)N2CCCCC2)cc1 (configuration not stated)	71 to 72 °C
CCOC(=O)CNC(=O)OCc1ccc(OC(C)=O)c(OC)c1	62 to 64 °C
O=C(NCc1ccccc1)C12CC3CC(CC(C3)C1)C2	170 to 172 °C
CC1=C(C(=O)Nc2cccc(C#N)c2)SCCO1	119 to 121 °C
CCOC(=O)CNC(=O)[C@H](CSCc1ccccc1)NC(=O)OCc1ccccc1	93 to 95 °C
CS(=O)c1c[nH]c2c(Sc3nc4cc(Cl)ccc4[nH]3)ccc([N+](=O)[O-])c12 (configuration not stated)	243 to 246 °C
CC1(CN2CCN(c3cccc4c3OCCO4)CC2)N=C(c2ccccc2)NC1=O (configuration not stated)	80 to 85 °C
O=Cc1cc2cc(OCc3ccccc3)ccc2nc1Cl	180 to 182 °C
c1ccc(CN2CCN(CCCCc3c[nH]c4ccc(-n5cnnc5)cc34)CC2)nc1	115 to 118 °C

From a melting point compilation (Tetko et al.; mined from patent text by program, amines drawn as free bases though some values may be those of a salt)
